Patent publication US10973857B2, “Mesenchymal stem cell and use thereof for treatment of muscle injury and muscle-associated diseases” (EXOSTEM BIOTEC LTD., priority 2016, dated 2021)

tested on: MyoD; assay: Myogenic priming of MSCs, MyoD-GFP reporter; type: cell-based, human; conditions: Nanog mRNA transfection prior to co-culture (Protocol B); one day incubation with 5-AZA (Protocol C)
Text: In light of the ability of MSCs to induce muscle regeneration, reduce muscle fibrosis and increase engraftment via paracrine effects, a method of supplementing the therapeutic effect of MSCs was developed. This method, called “myogenic priming”, increased the cell's paracrine effects on muscle cells on the one hand and promoted the MSC's own differentiation to muscle cells on the other. This priming increased the ability of MSCs to differentiate into satellite cells that undergo asymmetric division and to myoblasts that fuse with existing muscle fibers and deliver dystrophin to the cells. It was hypothesized that inducing MyoD expression in the cells would be one method of priming. This was tested by culturing CH- and UC-MSCs containing a MyoD-GFP reporter, in trans-well plates with human muscle cells (Protocol A). In this way, the extracellular vesicles and secreted factors from the muscle cells were able to contact the MSCs. A 3-day incubation resulting in a greater than 2-fold increase in MyoD expression as compared to control cells that had not be exposed to muscle cells (FIG. 3).
In addition to co-cultures with muscle cells, various methods were employed that would induced transient stem cell characteristics in MSCs to increase their muscle differentiation abilities in response to subsequent factors. […]

Compound	myoD expression
Nc1ncn([C@@H]2O[C@H](CO)[C@@H](O)[C@H]2O)c(=O)n1 [5-azacytidine]	increased

tested on: MSCs; assay: Priming of MSCs to a stem cell phenotype (Protocols D and E); type: cell-based; conditions: 24 hours, followed by media with a pH of about 6 for 1 hour or hypoxia for 24 hours (Protocol D)
Protocol: These incubations were also performed after first transfecting the MSCs with the modified Nanog mRNA.

Compound	primed stem cell phenotype in MSCs
C[C@@H](N)[C@H]1CC[C@H](C(=O)Nc2ccncc2)CC1 [Y-27632]	induced a primed stem cell phenotype

same assay, conditions: incubation for 1-6 days (Protocol E)

Compound	priming of MSCs
Oc1ccc(C=Cc2cc(O)cc(O)c2)cc1 [resveratrol]	primed the MSCs to a degree
CN(C)C(=N)N=C(N)N [metformin]	primed the MSCs to a degree
[Cl-].[Li+] [LiCl]	primed the MSCs to a degree
Nc1nccc2c1ncn2[C@@H]1C=C(CO)[C@@H](O)[C@H]1O [3-deazaneplanocin A]	primed the MSCs to a degree
NC(=O)c1ccc(-c2nc(-c3ccc4c(c3)OCO4)c(-c3ccccn3)[nH]2)cc1 [SB431542]	primed the MSCs to a degree
Cc1c[nH]c(-c2cnc(NCCNc3ccc(C#N)cn3)nc2-c2ccc(Cl)cc2Cl)n1 [CHIR99021]	primed the MSCs to a degree
CCCC(CCC)C(=O)O [valporic acid]	primed the MSCs to a degree
O=C(NCc1ccccc1)c1csc(Nc2ccncn2)n1 [Thiazovivin]	primed the MSCs to a degree
Cc1cccc(-c2nn(C(=S)Nc3ccccc3)cc2-c2ccnc3ccccc23)n1 [A83-01]	primed the MSCs to a degree
CC(C)n1nc(-c2cc3cc(O)ccc3[nH]2)c2c(N)ncnc21 [PP242]	primed the MSCs to a degree
O=c1c(O)c(-c2ccc(O)c(O)c2)oc2cc(O)ccc12 [fistein]	primed the MSCs to a degree
Cc1cccc(-c2[nH]ncc2-c2ccc3ncccc3n2)n1 [RepSox]	primed the MSCs to a degree
N[C@@H]1C[C@H]1c1ccccc1 (racemic) [tranylcypromine]	primed the MSCs to a degree

tested on: MSCs; assay: Protocol 3 differentiation of MSCs to hybrid cells with growth factors; type: cell-based; conditions: individually and in combination, as replacements or in combination with HGF and PDGF
Protocol: A shortened third protocol (Protocol 3) was examined and was also found to produce MSC-muscle cell hybrid cells. The MSCs were cultured in normal MSC culturing conditions followed by supplementation of the media for 24 hours with 5-AZA. The cells were than grown in media supplemented with 2% horse serum and HGF and PDGF for 2 weeks. […] The following growth factors were tested both individually and in combination as replacements or in combination with HGF and PDGF: EGF, IGF1, PDGFAA, PDGFBB, and VEGF. […] Additionally, the protocol could be halted by moving the treated MSCs to non-supplemented MSC media. Hybrid cells that were produced could thus be halted from further differentiation.
All three protocols were also performed with MSCs that had first undergone myogenic priming as described above.

Compound	production of hybrid cells from MSCs
PDGFAA: growth factor	found to produce hybrid cells
VEGF	found to produce hybrid cells
IGF1: growth factor	found to produce hybrid cells
